Experimental data taken from ChEMBL document CHEMBL1201862, “PubChem BioAssay data set” (2004).
Blank lines part the entries; values can stand above or below the molecule they belong to. Calls of active or inactive are those of the source.

Legend:
Type in all cases: functional
[1] = target: Ribosomal protein S6 kinase alpha-3 (Homo sapiens, UniProt P51812);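 note: measured within a kinome-wide profiling panel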
[2] = target: Dual specificity protein kinase CLK2 (Homo sapiens, UniProt P49760)
[3] = target: Dual specificity mitogen-activated protein kinase kinase 1 (Homo sapiens, UniProt Q02750); assay: Navigating the Kinome. Panel member name: MAP2K1
[4] = target: Serine/threonine-protein kinase TBK1 (Homo sapiens, UniProt Q9UHD2); assay: Navigating the Kinome. Panel member name: TBK1
[5] = target: 5'-AMP-activated protein kinase catalytic subunit alpha-1 (Homo sapiens, UniProt Q13131)
[6] = target: Proto-oncogene tyrosine-protein kinase receptor Ret (Homo sapiens, UniProt P07949);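 note: measured within a kinome-wide profiling panel, RET as the panel member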
[7] = target: Tyrosine-protein kinase receptor TYRO3 (Homo sapiens, UniProt Q06418);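 note: TYRO3 value obtained as one member of a kinome-wide profiling panel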
[8] = target: Serine/threonine-protein kinase D3 (Homo sapiens, UniProt O94806);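 note: determined within a kinase panel screen, with PRKCN as the panel member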
[9] = target: Tyrosine-protein kinase Lck (Homo sapiens, UniProt P06239);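 note: lck was assayed as one member of a kinase panel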
[10] = target: Death-associated protein kinase 3 (Homo sapiens, UniProt O43293);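 note: measured as one member of a kinome-wide profiling panel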
[11] = target: Mitogen-activated protein kinase 8 (Homo sapiens, UniProt P45983);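 note: value comes from one member of a kinome-wide kinase profiling panel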
[12] = target: Serine/threonine-protein kinase pim-1 (Homo sapiens, UniProt P11309)
Aurora kinase A = Aurora kinase A (Homo sapiens, UniProt O14965);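 note: value from the Navigating the Kinome kinase panel profiling, panel entry STK6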
[13] = target: Tyrosine-protein kinase BTK (Homo sapiens, UniProt Q06187)
[14] = target: Serine/threonine-protein kinase PAK 4 (Homo sapiens, UniProt O96013);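 note: value obtained within a kinome profiling panel in which PAK4 was one of the panel members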
[15] = target: Tyrosine-protein kinase JAK3 (Homo sapiens, UniProt P52333)
[16] = target: Mitogen-activated protein kinase 9 (Homo sapiens, UniProt P45984);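 note: value from a kinome panel profiling assay, MAPK9 panel entry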
LIM domain kinase 1 = LIM domain kinase 1 (Homo sapiens, UniProt P53667); assay: Navigating the Kinome. Panel member name: LIMK1
[17] = target: Serine/threonine-protein kinase TAO1 (Homo sapiens, UniProt Q7L7X3)
[18] = target: High affinity nerve growth factor receptor (Homo sapiens, UniProt P04629);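 note: NTRK1 tested as one member of a kinome-wide profiling panel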
[19] = target: Glycogen synthase kinase-3 alpha (Homo sapiens, UniProt P49840);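 note: GSK3A result taken from a broad kinome-wide kinase panel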
[20] = target: Hepatocyte growth factor receptor (Homo sapiens, UniProt P08581);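 note: kinase panel profiling across the kinome, with MET as the panel member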
Activated CDC42 kinase 1 = Activated CDC42 kinase 1 (Homo sapiens, UniProt Q07912); assay: Navigating the Kinome. Panel member name: ACK1
[21] = target: Platelet-derived growth factor receptor beta (Homo sapiens, UniProt P09619);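 note: value comes from a kinome panel, with PDGFRB tested as one panel member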
[22] = target: Receptor-type tyrosine-protein kinase FLT3 (Homo sapiens, UniProt P36888);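 note: FLT3 was tested as one member of a kinome-wide kinase panel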
[23] = target: Cyclin-dependent kinase 5 (Homo sapiens, UniProt Q00535);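 note: CDK5 measured as one member of a kinase profiling panel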
[24] = target: Dual specificity tyrosine-phosphorylation-regulated kinase 1B (Homo sapiens, UniProt Q9Y463); assay: Navigating the Kinome. Panel member name: DYRK1B
[25] = target: cAMP-dependent protein kinase catalytic subunit PRKX (Homo sapiens, UniProt P51817)
Focal adhesion kinase 1 = Focal adhesion kinase 1 (Homo sapiens, UniProt Q05397);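 note: measured as one member of a kinome panel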
[26] = target: Platelet-derived growth factor receptor alpha (Homo sapiens, UniProt P16234); assay: Navigating the Kinome. Panel member name: PDGFRA
[27] = target: Leucine-rich repeat serine/threonine-protein kinase 2 (Homo sapiens, UniProt Q5S007);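 note: value from a broad kinome-wide panel profiling study in which LRRK2 was one of the kinases tested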
Aurora kinase B = Aurora kinase B (Homo sapiens, UniProt Q96GD4)
[28] = target: Rho-associated protein kinase 1 (Homo sapiens, UniProt Q13464);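 note: measured within a broad kinome-wide panel profiling many kinases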
[29] = target: Tyrosine-protein kinase Fyn (Homo sapiens, UniProt P06241)
[30] = target: Serine/threonine-protein kinase Nek2 (Homo sapiens, UniProt P51955)
[31] = target: Cyclin-dependent kinase 8 (Homo sapiens, UniProt P49336); assay: Navigating the Kinome. Panel member name: CDK8
[32] = target: Cyclin-dependent kinase 7 (Homo sapiens, UniProt P50613);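 note: value comes from a kinome-wide kinase profiling panel in which CDK7 is one member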
[33] = target: Vascular endothelial growth factor receptor 1 (Homo sapiens, UniProt P17948);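 note: measured within a kinome-wide profiling panel, FLT1 as the panel member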
[34] = target: Glycogen synthase kinase-3 beta (Homo sapiens, UniProt P49841);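 note: value comes from a broad kinome profiling panel, with GSK3B as the panel member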
[35] = target: Cyclin-dependent kinase 9 (Homo sapiens, UniProt P50750);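 note: value from the CDK9 entry of a kinome-spanning kinase panel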
[36] = target: BDNF/NT-3 growth factors receptor (Homo sapiens, UniProt Q16620);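 note: NTRK2 measured as one member of a broad kinome-wide kinase profiling panel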
[37] = target: cAMP-dependent protein kinase catalytic subunit alpha (Homo sapiens, UniProt P17612)
[38] = target: Dual specificity protein kinase CLK4 (Homo sapiens, UniProt Q9HAZ1)
[39] = target: Mitogen-activated protein kinase kinase kinase kinase 4 (Homo sapiens, UniProt O95819)
[40] = target: Macrophage-stimulating protein receptor (Homo sapiens, UniProt Q04912); assay: Navigating the Kinome. Panel member name: MST1R
[41] = target: Dual specificity mitogen-activated protein kinase kinase 2 (Homo sapiens, UniProt P36507); assay: Navigating the Kinome. Panel member name: MAP2K2
[42] = target: Dual specificity tyrosine-phosphorylation-regulated kinase 1A (Homo sapiens, UniProt Q13627);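 note: measured against DYRK1A as one member of a broad kinome profiling panel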
[43] = target: Inhibitor of nuclear factor kappa-B kinase subunit epsilon (Homo sapiens, UniProt Q14164); assay: Navigating the Kinome. Panel member name: IKBKE
[44] = target: Calcium/calmodulin-dependent protein kinase type II subunit alpha (Homo sapiens, UniProt Q9UQM7); assay: Navigating the Kinome. Panel member name: CAMK2A
[45] = target: Leukocyte tyrosine kinase receptor (Homo sapiens, UniProt P29376); assay: Navigating the Kinome. Panel member name: LTK
[46] = target: Mitogen-activated protein kinase 14 (Homo sapiens, UniProt Q16539);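 note: part of a kinome-wide panel, MAPK14 entry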
[47] = target: T1, Neuropeptides B/W receptor type 1 (Homo sapiens, UniProt P48145); assay: human NPBW1 receptor blockade, IC50 – cell-based, fluorescence, dose response, set 5, late-stage follow-up (AID 588566)
T1 sequence (P48145 whole entry): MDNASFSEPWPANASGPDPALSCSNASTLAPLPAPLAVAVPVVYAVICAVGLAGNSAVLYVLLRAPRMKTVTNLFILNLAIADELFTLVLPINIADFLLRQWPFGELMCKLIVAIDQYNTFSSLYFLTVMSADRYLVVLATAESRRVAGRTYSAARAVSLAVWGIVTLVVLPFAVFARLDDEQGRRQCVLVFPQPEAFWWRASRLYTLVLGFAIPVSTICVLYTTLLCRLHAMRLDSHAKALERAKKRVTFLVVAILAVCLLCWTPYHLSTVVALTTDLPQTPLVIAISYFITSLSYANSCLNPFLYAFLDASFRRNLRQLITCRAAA

[48] = target: Melanin-concentrating hormone receptor 1 (Homo sapiens, UniProt Q99705); assay: Late-stage fluorescence-based counterscreen for antagonists of the G-protein coupled receptor 7 (GPR7): cell-based dose response assay to identify antagonists of the melanin-concentrating hormone receptor 1 (MCHR1) Set 5.

Tyrosine-protein kinase receptor TYRO3, sequence (Q06418 whole entry): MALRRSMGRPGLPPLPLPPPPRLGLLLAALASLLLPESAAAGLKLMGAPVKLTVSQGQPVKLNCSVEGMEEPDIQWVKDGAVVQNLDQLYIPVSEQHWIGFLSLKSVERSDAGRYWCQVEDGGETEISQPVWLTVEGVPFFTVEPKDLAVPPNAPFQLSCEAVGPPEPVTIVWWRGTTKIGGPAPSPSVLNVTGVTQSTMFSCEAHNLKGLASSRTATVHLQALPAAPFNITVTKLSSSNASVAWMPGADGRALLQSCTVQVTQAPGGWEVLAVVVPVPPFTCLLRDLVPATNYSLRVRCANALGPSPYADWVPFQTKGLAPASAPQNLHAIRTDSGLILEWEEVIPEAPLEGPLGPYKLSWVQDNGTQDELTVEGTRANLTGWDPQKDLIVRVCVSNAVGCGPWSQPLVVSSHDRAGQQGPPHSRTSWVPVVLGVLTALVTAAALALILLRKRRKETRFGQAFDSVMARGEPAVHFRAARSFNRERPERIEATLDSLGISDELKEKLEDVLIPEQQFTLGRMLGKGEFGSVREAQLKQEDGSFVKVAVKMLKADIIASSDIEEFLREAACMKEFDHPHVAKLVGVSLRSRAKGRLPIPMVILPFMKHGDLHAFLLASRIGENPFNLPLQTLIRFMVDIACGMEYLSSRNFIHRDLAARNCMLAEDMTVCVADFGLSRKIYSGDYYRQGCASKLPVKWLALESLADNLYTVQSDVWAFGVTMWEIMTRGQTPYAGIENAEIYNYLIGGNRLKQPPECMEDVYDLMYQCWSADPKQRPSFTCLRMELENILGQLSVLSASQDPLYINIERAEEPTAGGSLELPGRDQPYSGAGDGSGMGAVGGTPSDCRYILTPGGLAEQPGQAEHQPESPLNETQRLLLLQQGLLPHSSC
Dual specificity tyrosine-phosphorylation-regulated kinase 1B, sequence (Q9Y463 whole entry): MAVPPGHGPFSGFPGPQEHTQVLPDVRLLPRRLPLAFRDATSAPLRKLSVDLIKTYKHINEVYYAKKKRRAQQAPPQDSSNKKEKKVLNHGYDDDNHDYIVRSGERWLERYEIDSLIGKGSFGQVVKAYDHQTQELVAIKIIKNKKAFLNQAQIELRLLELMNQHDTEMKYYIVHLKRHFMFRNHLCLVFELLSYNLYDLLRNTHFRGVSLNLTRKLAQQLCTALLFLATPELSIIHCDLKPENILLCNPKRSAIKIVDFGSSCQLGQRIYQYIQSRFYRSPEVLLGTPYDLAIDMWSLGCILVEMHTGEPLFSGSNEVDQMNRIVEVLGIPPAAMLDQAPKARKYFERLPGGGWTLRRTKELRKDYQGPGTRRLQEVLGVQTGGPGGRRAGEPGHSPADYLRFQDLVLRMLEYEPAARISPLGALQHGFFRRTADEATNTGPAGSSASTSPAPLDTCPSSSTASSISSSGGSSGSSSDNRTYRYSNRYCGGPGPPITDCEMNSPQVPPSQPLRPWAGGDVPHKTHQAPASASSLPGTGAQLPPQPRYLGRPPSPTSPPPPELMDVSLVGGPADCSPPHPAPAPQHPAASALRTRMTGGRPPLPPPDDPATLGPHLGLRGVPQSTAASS
Aurora kinase B, sequence (Q96GD4 whole entry): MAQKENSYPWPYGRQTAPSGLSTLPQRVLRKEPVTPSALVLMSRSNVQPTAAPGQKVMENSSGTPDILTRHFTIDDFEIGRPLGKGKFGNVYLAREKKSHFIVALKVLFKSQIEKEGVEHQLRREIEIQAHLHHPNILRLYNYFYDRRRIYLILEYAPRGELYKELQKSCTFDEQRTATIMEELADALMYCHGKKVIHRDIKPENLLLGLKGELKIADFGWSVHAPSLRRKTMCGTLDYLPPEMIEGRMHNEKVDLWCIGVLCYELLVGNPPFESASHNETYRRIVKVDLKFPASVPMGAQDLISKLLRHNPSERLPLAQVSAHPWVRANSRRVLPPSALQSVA
Cyclin-dependent kinase 8, sequence (P49336 whole entry): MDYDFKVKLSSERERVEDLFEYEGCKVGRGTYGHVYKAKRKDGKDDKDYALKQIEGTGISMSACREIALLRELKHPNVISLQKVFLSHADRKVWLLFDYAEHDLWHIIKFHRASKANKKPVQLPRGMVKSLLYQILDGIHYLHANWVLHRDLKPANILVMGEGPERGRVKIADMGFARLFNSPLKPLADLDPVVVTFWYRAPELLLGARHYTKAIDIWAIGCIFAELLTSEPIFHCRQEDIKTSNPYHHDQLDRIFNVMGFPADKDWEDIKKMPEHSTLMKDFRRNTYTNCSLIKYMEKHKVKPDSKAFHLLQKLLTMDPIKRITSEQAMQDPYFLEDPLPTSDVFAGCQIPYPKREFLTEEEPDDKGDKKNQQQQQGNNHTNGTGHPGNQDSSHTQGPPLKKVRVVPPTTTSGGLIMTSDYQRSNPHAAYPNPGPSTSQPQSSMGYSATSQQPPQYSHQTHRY
Serine/threonine-protein kinase Nek2, sequence (P51955 whole entry): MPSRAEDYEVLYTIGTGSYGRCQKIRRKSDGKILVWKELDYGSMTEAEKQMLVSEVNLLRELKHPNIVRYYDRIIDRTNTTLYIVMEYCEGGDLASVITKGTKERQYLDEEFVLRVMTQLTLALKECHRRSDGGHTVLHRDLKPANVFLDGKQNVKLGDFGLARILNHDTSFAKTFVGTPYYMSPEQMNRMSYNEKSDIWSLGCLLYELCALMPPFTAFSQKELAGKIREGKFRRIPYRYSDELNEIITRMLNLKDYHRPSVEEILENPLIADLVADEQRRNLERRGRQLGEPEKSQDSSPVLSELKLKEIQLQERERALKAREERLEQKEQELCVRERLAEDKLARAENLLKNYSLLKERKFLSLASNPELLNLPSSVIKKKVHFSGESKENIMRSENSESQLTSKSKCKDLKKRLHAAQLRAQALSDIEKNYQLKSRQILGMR
Ribosomal protein S6 kinase alpha-3, sequence (P51812 whole entry): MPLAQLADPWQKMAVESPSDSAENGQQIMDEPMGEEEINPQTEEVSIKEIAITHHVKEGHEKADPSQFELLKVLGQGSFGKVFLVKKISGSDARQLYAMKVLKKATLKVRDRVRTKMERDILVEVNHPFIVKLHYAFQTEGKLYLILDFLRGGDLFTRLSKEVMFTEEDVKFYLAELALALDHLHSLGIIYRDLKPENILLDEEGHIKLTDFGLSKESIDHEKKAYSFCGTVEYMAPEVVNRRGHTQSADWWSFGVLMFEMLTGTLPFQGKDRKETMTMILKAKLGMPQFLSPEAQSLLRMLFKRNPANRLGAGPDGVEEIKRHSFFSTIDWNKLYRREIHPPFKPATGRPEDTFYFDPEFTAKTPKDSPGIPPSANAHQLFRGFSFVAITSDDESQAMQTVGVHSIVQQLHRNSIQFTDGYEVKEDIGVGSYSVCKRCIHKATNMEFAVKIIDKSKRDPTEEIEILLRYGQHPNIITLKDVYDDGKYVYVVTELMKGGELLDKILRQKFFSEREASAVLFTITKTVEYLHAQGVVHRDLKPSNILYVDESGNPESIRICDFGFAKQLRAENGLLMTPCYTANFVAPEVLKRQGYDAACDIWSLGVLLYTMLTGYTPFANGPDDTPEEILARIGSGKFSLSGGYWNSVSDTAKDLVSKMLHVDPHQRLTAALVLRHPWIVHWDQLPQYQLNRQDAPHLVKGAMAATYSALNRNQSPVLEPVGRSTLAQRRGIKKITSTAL
Macrophage-stimulating protein receptor, sequence (Q04912 25-304 limits assumed): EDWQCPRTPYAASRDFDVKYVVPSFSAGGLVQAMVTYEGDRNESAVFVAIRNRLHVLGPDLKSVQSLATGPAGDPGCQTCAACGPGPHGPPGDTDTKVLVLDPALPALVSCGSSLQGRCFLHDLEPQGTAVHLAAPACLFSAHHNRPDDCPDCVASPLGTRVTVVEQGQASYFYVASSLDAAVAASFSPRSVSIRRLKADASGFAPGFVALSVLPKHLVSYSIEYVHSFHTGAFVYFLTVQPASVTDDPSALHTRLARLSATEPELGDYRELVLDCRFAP
Macrophage-stimulating protein receptor, sequence (Q04912 310-1400 limits assumed): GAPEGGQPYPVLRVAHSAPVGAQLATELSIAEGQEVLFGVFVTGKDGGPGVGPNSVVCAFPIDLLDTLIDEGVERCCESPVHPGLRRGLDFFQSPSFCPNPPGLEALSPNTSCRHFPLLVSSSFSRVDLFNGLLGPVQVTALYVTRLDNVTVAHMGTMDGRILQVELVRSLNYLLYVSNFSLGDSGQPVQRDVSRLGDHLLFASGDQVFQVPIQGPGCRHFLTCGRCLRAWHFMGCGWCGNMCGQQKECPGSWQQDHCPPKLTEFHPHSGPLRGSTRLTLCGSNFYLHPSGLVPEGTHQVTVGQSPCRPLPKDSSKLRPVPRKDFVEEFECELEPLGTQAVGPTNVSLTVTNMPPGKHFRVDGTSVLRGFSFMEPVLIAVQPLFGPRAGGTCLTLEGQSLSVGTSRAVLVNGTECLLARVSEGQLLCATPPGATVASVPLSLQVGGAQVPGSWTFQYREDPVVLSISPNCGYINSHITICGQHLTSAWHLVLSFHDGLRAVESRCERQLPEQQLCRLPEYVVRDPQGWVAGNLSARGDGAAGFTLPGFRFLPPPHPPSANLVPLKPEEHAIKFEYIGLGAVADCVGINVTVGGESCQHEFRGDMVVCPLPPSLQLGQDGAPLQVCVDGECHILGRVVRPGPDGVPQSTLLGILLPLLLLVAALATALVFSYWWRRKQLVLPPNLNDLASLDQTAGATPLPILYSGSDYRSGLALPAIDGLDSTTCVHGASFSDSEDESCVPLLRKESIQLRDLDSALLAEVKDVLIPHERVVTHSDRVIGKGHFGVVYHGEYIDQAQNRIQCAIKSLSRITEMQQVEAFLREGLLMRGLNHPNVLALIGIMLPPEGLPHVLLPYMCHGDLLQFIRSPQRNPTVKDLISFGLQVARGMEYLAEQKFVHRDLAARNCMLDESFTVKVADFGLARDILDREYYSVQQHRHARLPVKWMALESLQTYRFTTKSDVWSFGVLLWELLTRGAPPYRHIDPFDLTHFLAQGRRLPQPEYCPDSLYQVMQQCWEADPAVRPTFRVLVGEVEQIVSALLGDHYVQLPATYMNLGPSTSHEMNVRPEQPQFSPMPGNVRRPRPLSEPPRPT

Ki [1]: > 3.98 µM (inactive)
Ki [2]: 2 µM (active)
Ki [3]: > 3.16 µM (inactive)
Ki [4]: > 3.16 µM (inactive)
Ki [5]: 2 µM (active)
Ki [6]: 1.58 µM (active)
Ki [7]: 2 µM (active)
Ki [8]: 0.794 µM (active)
Ki [9]: > 6.31 µM (inactive)
Ki [11]: 3.98 µM (active)
Ki [12]: 1 µM (active)
Ki (Aurora kinase A): > 1.58 µM (inactive)
Ki [13]: > 6.31 µM (inactive)
Ki [14]: > 5.01 µM (inactive)
Ki [15]: > 5.01 µM (inactive)
Ki [16]: > 3.98 µM (inactive)
Ki (LIM domain kinase 1): 0.126 µM (active)
Ki [17]: > 6.31 µM (inactive)
Ki [18]: 1.58 µM (active)
Ki [19]: 1.58 µM (active)
Ki [20]: 1 µM (active)
Ki (Activated CDC42 kinase 1): > 3.98 µM (inactive)
Ki [21]: > 2 µM (inactive)
Ki [22]: > 3.16 µM (inactive)
Ki [23]: 0.00631 µM (active)
Ki [24]: 0.631 µM (active)
Ki [25]: > 3.16 µM (inactive)
Ki (Focal adhesion kinase 1): > 6.31 µM (inactive)
Ki [26]: 2 µM (active)
Ki [27]: 1.58 µM (active)
Ki (Aurora kinase B): > 3.98 µM (inactive)
Ki [28]: > 3.98 µM (inactive)
Ki [29]: > 6.31 µM (inactive)
Ki [30]: > 3.16 µM (inactive)
Ki [31]: 0.316 µM (active)
Ki [32]: 3.98 µM (active)
Ki [33]: > 3.98 µM (inactive)
Ki [34]: 1 µM (active)
Ki [35]: 0.2 µM (active)
Ki [36]: > 3.98 µM (inactive)
Ki [37]: > 1.26 µM (inactive)
Ki [38]: 0.126 µM (active)
Ki [39]: 5.01 µM (active)
Ki [40]: 1.58 µM (active)
Ki [41]: > 3.98 µM (inactive)
Ki [42]: 1.26 µM (active)
Ki [43]: > 3.16 µM (inactive)
Ki [44]: > 3.98 µM (inactive)
Ki [45]: 2 µM (active)
Ki [46]: > 3.98 µM (inactive)
SMILES: O=C(Nc1cnccn1)Nc1cccc2c(O)cccc12
Ki [10]: 0.316 µM (active)

IC50 [47]: 0.36 µM (active)
IC50 [48]: 1.13 µM (active)
SMILES: COc1ccc(C(C#N)c2c(Cl)cnn(Cc3cccc4ccccc34)c2=O)cc1 (stereo not drawn)
